Measurements: patent publication US12152016B2, “Aryl hydrocarbon receptor modulators and uses thereof” (Beth Israel Deaconess Medical Center, Inc., priority 2018, dated 2024)
pEC50, pIC50: −log10 of the molar value.

Columns and labels:
[1] = target: T1, aryl hydrocarbon receptor (AHR) (Homo sapiens, UniProt P35869); experiment: XRE-driven luciferase reporter assay, human HepG2; details: for XRE luciferase Emax (fold): fold over vehicle; for XRE luciferase Emax (footnote c): Emax defined as fold increase at highest concentration tested (10 μM); for fold less active / fold decrease in activity: AHR activity relative to compound #10
T1 sequence (P35869 11-848): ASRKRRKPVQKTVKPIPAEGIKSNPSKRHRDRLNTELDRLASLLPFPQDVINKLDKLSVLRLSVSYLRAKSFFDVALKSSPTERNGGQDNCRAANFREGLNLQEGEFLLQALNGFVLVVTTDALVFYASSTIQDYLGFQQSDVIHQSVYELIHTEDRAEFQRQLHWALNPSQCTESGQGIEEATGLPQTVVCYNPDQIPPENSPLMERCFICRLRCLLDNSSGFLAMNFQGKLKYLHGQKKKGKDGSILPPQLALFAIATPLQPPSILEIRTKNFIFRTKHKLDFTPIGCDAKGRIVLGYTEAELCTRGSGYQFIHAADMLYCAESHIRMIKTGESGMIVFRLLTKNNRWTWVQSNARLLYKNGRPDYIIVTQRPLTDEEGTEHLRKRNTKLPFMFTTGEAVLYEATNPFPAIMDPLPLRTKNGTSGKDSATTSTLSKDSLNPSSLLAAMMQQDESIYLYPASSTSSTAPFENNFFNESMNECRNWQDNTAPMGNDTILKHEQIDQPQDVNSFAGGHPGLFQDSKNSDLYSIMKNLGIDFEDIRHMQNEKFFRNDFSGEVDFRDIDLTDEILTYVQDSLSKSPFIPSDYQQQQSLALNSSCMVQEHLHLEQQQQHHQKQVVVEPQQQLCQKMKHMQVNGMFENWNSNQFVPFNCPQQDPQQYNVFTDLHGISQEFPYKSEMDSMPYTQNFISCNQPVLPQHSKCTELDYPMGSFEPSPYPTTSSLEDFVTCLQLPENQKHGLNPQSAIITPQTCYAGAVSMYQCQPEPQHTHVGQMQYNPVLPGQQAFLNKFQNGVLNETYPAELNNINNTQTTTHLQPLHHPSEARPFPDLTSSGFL
Experimental: The Human HepG2 cell line is a human liver cancer cell line, and provide a relevant in vitro AHR activity model. These Hep2G cells have been modified to stably express an AHR-responsive (XRE) firefly luciferase reporter gene to give Hep2G-XRE cells. The expression of luciferase should primarily reflect AHR-dependent transcription controlled by XRE.
Transfected cells were treated with AhR agonist (10^−5-10^−12) for 4.5 h in full medium. Cells were lysed and luciferase was activated using the Luciferase Assay System (Promega). Luminescence signals were measured with a FluroStar Omega microplate reader. Luminescence signals of compound treated groups were normalized to vehicle (DMSO) treated control and plotted as concentration dependent fold changes.

[2] = tested on: AHR-dependent transcription of the CYP1A1 gene; experiment: CYP1A1 induction in mouse macrophages; format: cell-based
Experimental: (§1) Mouse macrophages were also used to test AHR-dependent transcription of the CYP1A1 gene in vivo. Finally, the activity of exemplary compounds of Formula (I) described herein was tested in the human […] cell line U937. The U937 cell line is derived from a patient with diffuse histiocytic lymphoma. Tables 2-4 summarize structure-activity relationship data collected for exemplary, non-limiting compounds of Formula (I) described herein.

[3] = tested on: AHR-dependent transcription of the CYP1A1 gene; experiment: CYP1A1 induction in human U937 cells; format: cell-based; details: Human U937, 1 μM
Experimental: as §1

[4] = XRE luciferase EC50, Human HepG2, least square curve fitting, >10,000 = does not reach 50% of Emax of ITE at 10 μM (highest concentration tested)
[5] = XRE luciferase EC50 (footnote a), Human HepG2, EC50 defined as concentration induced 50% of Emax of ITE

| XRE luciferase Emax (fold) ([1]; Human HepG2) | pEC50 [1, 4] | CYP1A1 induction (% of ITE ± SEM) ([2]; 50 nM) | CYP1A1 induction (% of ITE ± SEM) ([2]; 5 μM) | SMILES | other results |
| --- | --- | --- | --- | --- | --- |
| 23 | < 5.00 |  | 2.5 ± 1.4 % of ITE | CN(C)C(=O)c1cccc(C(=O)c2c[nH]c3ccccc23)n1 [Compound 4] |  |
| 48 | 7.02 | 168 ± 86 % of ITE | 101 ± 33 % of ITE | COc1cccc(C(=O)c2c[nH]c3ccccc23)n1 [Compound 5] | CYP1A1 induction (% of ITE ± SEM) [3]: 165 ± 27 % of ITE; CYP1A1 induction (% of ITE ± SEM) ([2]; 5 nM): 57 ± 22 % of ITE |
|  |  | 86 ± 47 % of ITE |  | O=C(c1cccc(Cl)n1)c1c[nH]c2ccccc12 [Compound 6] | XRE luciferase Emax (footnote c) ([1]; Human HepG2): (109)^c fold; pEC50 [1, 5]: 7.54 |
|  | < 5.00 | 2 ± 1 % of ITE | 26 ± 10 % of ITE | COC(=O)c1ccc(C(=O)c2c[nH]c3ccccc23)nc1 [Compound 11, methyl 6-(1H-indole-3-carbonyl)pyridine-3-carboxylate] | XRE luciferase Emax (footnote c) ([1]; Human HepG2): (2.3)^c fold |
|  |  | 5 ± 3 % of ITE |  | CC(=O)Oc1cccc(C(=O)c2c[nH]c3ccccc23)c1 [Compound 12] |  |
| 62 | 8.12 | 150 ± 36 % of ITE | 89 ± 44 % of ITE | COC(=O)c1cccc(C(=O)c2c[nH]c3ccc(Cl)cc23)n1 [Compound 15] |  |
| 42 | 7.74 | 11 ± 4 % of ITE |  | COC(=O)c1cccc(C(=O)c2c[nH]c3ncccc23)n1 [Compound 18] |  |
|  |  | 57 ± 5 % of ITE | 105 ± 3 % of ITE | COC(=O)c1cccc(C(=O)c2c[nH]c3c2ccc2ccccc23)n1 [Compound 22] | XRE luciferase Emax (footnote c) ([1]; Human HepG2): (121)^c fold; pEC50 [1, 5]: 7.85 |
| 74 | 5.33 |  | 65 ± 9 % of ITE | COC(=O)c1ccc(C(=O)c2c[nH]c3ccccc23)cn1 [Compound 23] |  |
|  |  | 6 ± 1 % of ITE |  | COc1ccccc1C(=O)c1c[nH]c2ccccc12 [Compound 27] |  |
| 59 | 7.21 |  | 46 ± 4 % of ITE | O=C(c1cccc(N2CCOCC2)n1)c1c[nH]c2ccccc12 [Compound 110, 1H-indol-3-yl-(6-morpholino-2-pyridyl)methanone] | fold less active / fold decrease in activity [1]: ~20 fold |
| 20 | < 5.00 |  | 15 ± 6 % of ITE | O=C(c1ccccn1)c1c[nH]c2ccccc12 [Compound 124, 1H-indol-3-yl(2-pyridyl)methanone] |  |
|  | < 5.00 |  | 6 ± 2 % of ITE | COC(=O)c1cccc(C(=O)c2c(C)[nH]c3ccccc23)n1 [Compound 144, methyl 6-(2-methyl-1H-indole-3-carbonyl)pyridine-2-carboxylate] | XRE luciferase Emax (footnote c) ([1]; Human HepG2): (22)^c fold; CYP1A1 induction (% of ITE ± SEM) [3]: 29 ± 14 % of ITE |

Second part, the compound before the results:

| SMILES | XRE luciferase Emax (fold) ([1]; Human HepG2) | pEC50 [1, 4] | CYP1A1 induction (% of ITE ± SEM) ([2]; 50 nM) | CYP1A1 induction (% of ITE ± SEM) ([2]; 5 μM) | other results |
| --- | --- | --- | --- | --- | --- |
| CC(C)OC(=O)c1cccc(C(=O)c2c[nH]c3ccccc23)n1 [Compound 1] | 37 | 6.43 | 22 ± 11 % of ITE | 128 ± 11 % of ITE |  |
| O=C(OC1CCCCC1)c1cccc(C(=O)c2c[nH]c3ccccc23)n1 [Compound 2] | 55 | 4.92 | 19 ± 4 % of ITE | 95 ± 7 % of ITE |  |
| O=C(O)c1cccc(C(=O)c2c[nH]c3ccccc23)n1 [Compound 3] | 47 | 6.19 | 27 ± 17 % of ITE | 97 ± 16 % of ITE |  |
| O=C(c1ccccc1)c1c[nH]c2ccccc12 [Compound 7] |  |  |  | 0.6 ± 0.2 % of ITE |  |
| COC(=O)c1cccc(C(=O)c2c[nH]c3ccccc23)c1 [Compound 8] |  | < 5.00 | 3 ± 1 % of ITE |  | XRE luciferase Emax (footnote c) ([1]; Human HepG2): (2.1)^c fold |
| COc1cccc(C(=O)c2c[nH]c3ccccc23)c1 [Compound 9] |  | < 5.00 | 9 ± 5 % of ITE |  | XRE luciferase Emax (footnote c) ([1]; Human HepG2): (25)^c fold; CYP1A1 induction (% of ITE ± SEM) [3]: 101 ± 12 % of ITE |
| COC(=O)c1cccc(C(=O)c2cn(C)c3ccccc23)n1 [Compound 13] | 55 | 6.72 | 29 ± 10 % of ITE | 50 ± 20 % of ITE |  |
| COC(=O)c1cccc(C(=O)c2c[nH]c3cccc(Cl)c23)n1 [Compound 14] |  | < 5.00 | 141 ± 83 % of ITE |  | XRE luciferase Emax (footnote c) ([1]; Human HepG2): (19)^c fold |
| COC(=O)c1cccc(C(=O)c2c[nH]c3cc(Cl)ccc23)n1 [Compound 16] |  |  | 169 ± 59 % of ITE | 122 ± 48 % of ITE | XRE luciferase Emax (footnote c) ([1]; Human HepG2): (141)^c fold; pEC50 [1, 5]: 8.80 |
| COC(=O)c1cccc(C(=O)c2c[nH]c3c(Cl)cccc23)n1 [Compound 17] | 68 | 8.89 | 49 ± 19 % of ITE |  |  |
| COC(=O)c1cccc(C(=O)c2c[nH]c3ccc(OC)cc23)n1 [Compound 19] | 131 | 5.74 | 121 ± 12 % of ITE | 120 ± 13 % of ITE |  |
| COC(=O)c1cccc(C(=O)c2c[nH]c3ccc(Br)cc23)n1 [Compound 20] | 55 | 8.21 | 138 ± 8 % of ITE | 144 ± 20 % of ITE |  |
| COC(=O)c1cccc(C(=O)c2c[nH]c3c4c(ccc23)CCC4)n1 [Compound 21] | 53 | 7.57 | 129 ± 8 % of ITE | 118 ± 5 % of ITE |  |
| COC(=O)c1ccc(C(=O)c2c[nH]c3ccccc23)s1 [Compound 24] |  |  | 99 ± 18 % of ITE | 59 ± 22 % of ITE | CYP1A1 induction (% of ITE ± SEM) [3]: 244 ± 28 % of ITE; CYP1A1 induction (% of ITE ± SEM) ([2]; 5 nM): 60 ± 13 % of ITE |
| COC(=O)c1ccc(C(=O)c2c[nH]c3ccccc23)cc1 [Compound 25] |  |  | 20 ± 16 % of ITE |  |  |
| COC(=O)c1ccccc1C(=O)c1c[nH]c2ccccc12 [Compound 26] |  |  | 10 ± 7 % of ITE |  |  |
| COc1ccc(C(=O)c2c[nH]c3ccccc23)cc1 [Compound 28] |  |  | 19 ± 8 % of ITE |  |  |
| COc1cc(C(=O)c2c[nH]c3ccccc23)ccn1 [Compound 29] | 65 | 5.59 |  | 44 ± 2 % of ITE |  |
| COc1cnc(C(=O)c2c[nH]c3ccccc23)cn1 [Compound 30] |  |  |  | 41 ± 3 % of ITE | XRE luciferase Emax (footnote c) ([1]; Human HepG2): (30)^c fold; pEC50 [1, 5]: 8.09 |
| O=C(O)c1cccc(C(=O)c2c[nH]c3ccccc23)n1 [Compound 145, 6-(1H-indole-3-carbonyl)pyridine-2-carboxylic acid] |  |  |  |  | pIC50 [1]: 6.19 |
| CCOC(=O)c1cccc(C(=O)c2c[nH]c3ccccc23)n1 [Compound 147, ethyl 6-(1H-indole-3-carbonyl)pyridine-2-carboxylate] | 40 | 6.08 | 8 ± 2 % of ITE | 52 ± 28 % of ITE | fold less active / fold decrease in activity [1]: > 250 fold |
| COC(=O)c1cccc(C(=O)c2c[nH]c3ccccc23)c1 [Compound 202, methyl 3-(1H-indole-3-carbonyl)benzoate] |  |  |  |  | CYP1A1 induction (% of ITE ± SEM) [3]: 3 ± 1 % of ITE |
| COC(=O)c1cccc(C(=O)c2n[nH]c3ccccc23)c1 [reference compound] | 117 | 6.17 | 14 ± 4 % of ITE | 90 ± 2 % of ITE | CYP1A1 induction (% of ITE ± SEM) [3]: 48 ± 6 % of ITE |
